From patent publication US20240075031A1 (HHT Foundation International, Inc., priority 2020, published 2024)
Where two headings read alike, the source gives them in different places.

Assays:
[1] = system: transfusion-dependent adults with HHT (epistaxis and/or GI bleeding); assay: Single-center pazopanib treatment pathway for severe bleeding and transfusion-dependent anemia in HHT; conditions: for RBC units transfused, median (IQR): pretreatment 3 months 16.0 (9.5-22.0); for patients with transferrin saturation ≥20%: no patient at baseline
Excerpt: In some embodiments, and still referring to FIG. 1, subjects may undergo follow-up clinical visits with vital signs, laboratory evaluations [complete blood count with white-cell differential, serum ferritin, iron and transferrin saturation, complete metabolic panel including liver function testing (transaminases, bilirubin, and alkaline phosphatase), serum phosphorous, urinalysis, and thyroid-stimulating hormone levels], electrocardiogram, and ESS calculations at a preconfigured time interval such as but not limited to 1 month, 2 months, 3 months, 4 months, 5 months, 6 months, and the like thereof per the pathway, with additional laboratory testing and visits as indicated.
In some embodiments, one or more secondary endpoints may include hemoglobin concentrations, epistaxis severity scores, iron infusions, baseline serum ferritin, and/or transferrin saturation.
Baseline and on-treatment hemoglobin values were drawn at clinical nadir (just prior to a scheduled transfusion) to minimize any impact of transfusion on the value. If more than one value was measured in a given 3-month period, the average value for that period was documented for analysis.
Now referring to FIG. 3B, three-month ESS was collected by the treating physician at treatment initiation and visits at 3, 6, 9, and 12 months on-treatment.
Now referring to FIG. 3C, a number of RBC units transfused in the 3 months of pretreatment were compared with the number of units transfused at each 3-month time interval on-treatment (1-3, 4-6, 7-9, and 10-12 months). The same analysis was performed for the total milligrams of elemental iron administered by IV infusion.
Baseline and on-treatment iron studies were drawn at nadir (prior to iron infusion or RBC transfusion, if either was given) to minimize any impact of recent iron infusion or RBC transfusion on the values.

[2] = 6 patient PK study, 50 mg SD, powder in capsule (disclosed method); format: in vivo, patients; conditions: for AUC / Cmax: 50 mg
Excerpt: In some embodiments, may be similar to the results expected of a crushed tablet. No reduction in the standard error (SE), but only 6 patients may not be adequate to see this range of exposures decrease. An improvement with powder in capsules is that the variation in exposure should also be truncated based on prior crushed tablet study.

[3] = parameters: AUC.0-24, Mean: unit not given beside the values; conditions: historical values, Hurwitz 2009; 50 mg SD; cited from earlier work
[4] = disclosed method, 6 patients, 50 mg SD

For `Cc1ccc(Nc2nccc(N(C)c3ccc4c(C)n(C)nc4c3)n2)cc1S(N)(=O)=O` [pazopanib], the “RBC units transfused, median (IQR)” value ([1]; 1-3 months of on-treatment) was 0.0 (0.0-1.0) units, the “elemental iron infused, median (IQR)” value ([1]; 1-3 months on-treatment, pretreatment 3 months 4500 (2145-7260)) was 0 (0-1500) milligrams and the “patients with freedom from anemia (Hgb≥11 g/dL)” value (shortened to “patients with freedom”) ([1]; 3 months) was 15%. The “RBC units transfused, median (IQR)” value ([1]; 4-6, 7-9, and 10-12 months of on-treatment) was 0.0 (0.0-0.0) units, the “elemental iron infused, median (IQR)” value ([1]; 4-6 months on-treatment) was 0 (0-1260) milligrams and the “patients with freedom” value ([1]; 6 months) was 85%. For the same molecule, the “patients with transferrin saturation ≥20%” value ([1]; 6 months, 8 patients) was 62%, the “elemental iron infused, median (IQR)” value ([1]; 7-9 months on-treatment) was 0 (0-1260) milligrams and the “patients with freedom” value ([1]; 9 months) was 85%. The “elemental iron infused, median (IQR)” value ([1]; 10-12 months on-treatment) was 0 (0-510) milligrams, the “patients with freedom” value ([1]; 12 months) was 92% and the “patients not requiring any local hemostatic procedures after initiating treatment” value ([1]; 12 months on-treatment, 9 patients) was 69%. The “patients with transferrin saturation ≥20%” value ([1]; 12 months, 7 patients) was 54%, the “patients achieving RBC transfusion independence” value ([1]; at 3 months of treatment, 10 of 13 patients) was 77% and the “remaining patients achieving RBC transfusion independence” value ([1]; at 6 months of treatment, 3 of 13 patients) was 23%. For the same molecule, the “patients entirely RBC transfusion free” value ([1]; during the 12 months following pazopanib initiation, 9 of 13 patients) was 69%, the “number of local hemostatic procedures, median (range)” value ([1]; during the 12 months of on-treatment, 12 months pretreatment 4 (1-5)) was 0 (0-2) and the “patients achieving RBC transfusion independence per Gale criteria” value ([1]; first year of pazopanib treatment, 13 patients analysed) was 13 patients. The “transferrin saturation, median (IQR)” value ([1]; on-treatment (average of values at 6 and 12 months), baseline 9% (5-11%)) was 23%, the “serum ferritin, median (IQR)” value ([1]; on-treatment (average of values at 6 and 12 months), baseline 31 (16-71)) was 122 (79-154) ng/mL and the “increase in the Area Under the Curve (AUC) from prior publications of comparable dosing” value ([2]; capsule enclosing a powder substance) was 20-25%. The “C24, GeoMean” value [2, 4] was 1.90, the “C24, Mean” value [2, 4] was 2.09 and the AUC ([2]; human, plasma, oral, disclosed method, 6 patients, 50 mg SD, read-out: AUC.0-24, GeoMean) was 59800 ng·h/mL. For the same molecule, the AUC ([2]; human, plasma, oral, disclosed method, 6 patients, 50 mg SD, read-out: AUC.0-24, Mean) was 64400 ng·h/mL, the Cmax ([2]; human, plasma, oral, disclosed method, 6 patients, 50 mg SD, read-out: Cmax, GeoMean) was 3820 ng/mL and the Cmax ([2]; human, plasma, oral, disclosed method, 6 patients, 50 mg SD, read-out: Cmax, Mean) was 4120 ng/mL. The Tmax ([2]; human, plasma, oral, disclosed method, 6 patients, 50 mg SD, read-out: Tmax, median) was 4.5 h, the “AUC.0-24, Mean” value [3] was 51.8 and the “C24, Mean” value [3] was 1.5. For the same molecule, the “Tmax, median” value [3] was 3.0/.
